Experimental data as given in the NIST ThermoML archive (doi:10.1021/je700300y).
Numbers after ± are expanded uncertainties.

Assay: xn = mol fraction of the nth substance listed
Conditions: 101 kPa, Liquid

CCO [ethanol] + O
mass density [kg/m3]
Conditions	283.15 K	288.15 K	293.15 K	298.15 K	303.15 K	308.15 K	313.15 K
x2 = 0.0805	808.05 ± 0.22	803.79 ± 0.22	799.51 ± 0.22	795.19 ± 0.23	790.85 ± 0.23	786.45 ± 0.23	782.01 ± 0.24
x2 = 0.1584	818.14 ± 0.21	813.87 ± 0.21	809.57 ± 0.22	805.23 ± 0.22	800.84 ± 0.22	796.41 ± 0.23	791.93 ± 0.23
x2 = 0.2376	828.89 ± 0.2	824.61 ± 0.21	820.29 ± 0.21	815.93 ± 0.21	811.53 ± 0.22	807.07 ± 0.22	802.5 ± 0.22
x2 = 0.3322	842.93 ± 0.19	838.67 ± 0.19	834.37 ± 0.2	830.01 ± 0.2	825.61 ± 0.2	821.15 ± 0.21	816.63 ± 0.21
x2 = 0.4026	854.12 ± 0.18	849.89 ± 0.19	845.61 ± 0.19	841.27 ± 0.19	836.89 ± 0.2	832.45 ± 0.2	827.94 ± 0.2
x2 = 0.491	869.86 ± 0.17	865.67 ± 0.17	861.44 ± 0.18	857.16 ± 0.18	852.81 ± 0.18	848.4 ± 0.19	843.95 ± 0.19
x2 = 0.5806	888.19 ± 0.16	884.08 ± 0.16	879.93 ± 0.16	875.71 ± 0.17	871.44 ± 0.17	867.11 ± 0.17	862.72 ± 0.18
x2 = 0.648	903.57 ± 0.15	899.55 ± 0.15	895.48 ± 0.15	891.35 ± 0.15	887.16 ± 0.16	882.91 ± 0.16	878.59 ± 0.16
x2 = 0.7185	921.65 ± 0.13	917.78 ± 0.13	913.84 ± 0.14	909.85 ± 0.14	905.8 ± 0.14	901.68 ± 0.15	897.49 ± 0.15
x2 = 0.8009	944.6 ± 0.11	941.07 ± 0.12	937.48 ± 0.12	933.81 ± 0.12	930.07 ± 0.12	926.25 ± 0.13	922.34 ± 0.13
x2 = 0.8813	965.96 ± 0.1	963.49 ± 0.1	960.85 ± 0.1	958.06 ± 0.1	955.13 ± 0.11	952.05 ± 0.11	948.82 ± 0.11
x2 = 0.9605	984.04 ± 0.08	983.11 ± 0.08	981.89 ± 0.08	980.42 ± 0.09	978.75 ± 0.09	976.91 ± 0.09	974.89 ± 0.09

CO [methanol] + O
mass density [kg/m3]
Conditions	283.15 K	288.15 K	293.15 K	298.15 K	303.15 K	308.15 K	313.15 K
x2 = 0.0871	814.96 ± 0.21	810.44 ± 0.22	805.91 ± 0.22	801.35 ± 0.22	796.78 ± 0.23	792.17 ± 0.23	787.52 ± 0.23
x2 = 0.1529	826.26 ± 0.2	821.86 ± 0.21	817.44 ± 0.21	812.99 ± 0.21	808.5 ± 0.22	803.98 ± 0.22	799.41 ± 0.22
x2 = 0.2395	841.8 ± 0.19	837.53 ± 0.2	833.23 ± 0.2	828.9 ± 0.2	824.53 ± 0.21	820.11 ± 0.21	815.64 ± 0.21
x2 = 0.3306	859.01 ± 0.18	854.89 ± 0.18	850.73 ± 0.19	846.53 ± 0.19	842.28 ± 0.19	837.98 ± 0.2	833.61 ± 0.2
x2 = 0.4064	873.83 ± 0.17	869.85 ± 0.17	865.81 ± 0.17	861.73 ± 0.18	857.59 ± 0.18	853.4 ± 0.18	849.13 ± 0.19
x2 = 0.4788	888.32 ± 0.16	884.5 ± 0.16	880.62 ± 0.16	876.68 ± 0.17	872.67 ± 0.17	868.59 ± 0.17	864.45 ± 0.17
x2 = 0.5552	904.06 ± 0.14	900.44 ± 0.15	896.75 ± 0.15	893 ± 0.15	889.17 ± 0.16	885.26 ± 0.16	881.28 ± 0.16
x2 = 0.6365	921.03 ± 0.13	917.69 ± 0.13	914.28 ± 0.14	910.78 ± 0.14	907.2 ± 0.14	903.52 ± 0.14	899.76 ± 0.15
x2 = 0.7321	941.06 ± 0.12	938.2 ± 0.12	935.24 ± 0.12	932.18 ± 0.12	929.02 ± 0.13	925.74 ± 0.13	922.36 ± 0.13
x2 = 0.7901	952.73 ± 0.11	950.29 ± 0.11	947.7 ± 0.11	945 ± 0.11	942.19 ± 0.12	939.27 ± 0.12	936.09 ± 0.12
x2 = 0.8807	970.64 ± 0.09	969.11 ± 0.09	967.39 ± 0.1	965.47 ± 0.1	963.37 ± 0.1	961.09 ± 0.1	958.65 ± 0.1
x2 = 0.964	988.96 ± 0.08	988.25 ± 0.08	987.25 ± 0.08	986 ± 0.08	984.5 ± 0.08	982.79 ± 0.08	980.87 ± 0.09
